{
  "source": "patent US5196437A",
  "about": "“Method for treating hepatic diseases and regenerating liver tissue using FK 506 and related compounds” (Fujisawa Pharmaceutical Company, Ltd., priority 1990, dated 1993)",
  "key": {"hepatocytes in culture": {"tested_on": "hepatocytes in culture", "conditions": "literature (Francavilla et al); cited from earlier work"}, "[1]": {"tested_on": "hepatocytes / rat liver regeneration", "assay": "Rat liver regeneration (3H-thymidine incorporation into hepatic DNA and hepatocyte mitosis) after sham operation or 40%/70% hepatectomy", "assay_type": "in vivo, rat (Fisher 344)", "conditions": "for 3H-thymidine incorporation / Proportion of hepatocytes in mitosis: 4 days, mean (SE)", "procedure": "Adult male inbred Fisher 344 rats weighing 180-200 g were purchased from Hilltop Lab Animals Inc (Scottdale, Pa.). The animals were given standard rat laboratory diet and water ad libitum in a temperature and light controlled room (light 0730-1930). […] Animals in groups 3 and 4 had sham operations in which the liver was manipulated at laparotomy. Food and drink were allowed immediately. Parenteral fluid and electrolyte support were not required.\n24 h after the hepatectomies, 185×10^4 Bq ^3 H-thymidine was administered to all rats by intraperitoneal injection. The rats, including groups 1 and 2, were killed 2 h later by guillotine. Extraction and purification of hepatic DNA were done with the method of Ove et al (Liver and hormones, New York: Raven Press, 1987:265-76) and DNA content was measured with calf thymus DMA (Sigma) as standard. Specimens from each liver were prepared for histological examination with hematoxylin and eosin and the proportion of hepatocytes in mitosis was counted. All results are means and SE."}, "midzonal hepatocytes": {"tested_on": "midzonal hepatocytes", "assay": "Eck fistula dogs, left portal vein infusion: electron microscopy of hepatocyte organelles", "assay_type": "in vivo, dog (beagle)", "conditions": "for Organelle volume in average midzonal hepatocytes, Lipids, Left / Organelle volume in average midzonal hepatocytes, Lysosomes, Left / Organelle volume in average midzonal hepatocytes, Microbodies, Left / Organelle volume in average midzonal hepatocytes, Mitochondria, Left / Area of rough endoplasmic reticulum per average midzonal hepatocyte, Left / Area of smooth endoplasmic reticulum per average midzonal hepatocyte, Left: left (infused) lobe; for Organelle volume in average midzonal hepatocytes, Lipids, Left / Organelle volume in average midzonal hepatocytes, Lysosomes, Left / Organelle volume in average midzonal hepatocytes, Microbodies, Left / Organelle volume in average midzonal hepatocytes, Mitochondria, Left / Area of rough endoplasmic reticulum per average midzonal hepatocyte, Left / Area of smooth endoplasmic reticulum per average midzonal hepatocyte, Left / Organelle volume in average midzonal hepatocytes, Lipids, Right / Organelle volume in average midzonal hepatocytes, Lysosomes, Right / Organelle volume in average midzonal hepatocytes, Microbodies, Right / Organelle volume in average midzonal hepatocytes, Mitochondria, Right / Area of rough endoplasmic reticulum per average midzonal hepatocyte, Right / Area of smooth endoplasmic reticulum per average midzonal hepatocyte, Right: mean +/- SD; for Area of rough endoplasmic reticulum per average midzonal hepatocyte, Left: left vs right 0.0001; for Organelle volume in average midzonal hepatocytes, Lipids, Right / Organelle volume in average midzonal hepatocytes, Lysosomes, Right / Organelle volume in average midzonal hepatocytes, Microbodies, Right / Organelle volume in average midzonal hepatocytes, Mitochondria, Right / Area of rough endoplasmic reticulum per average midzonal hepatocyte, Right / Area of smooth endoplasmic reticulum per average midzonal hepatocyte, Right: right lobe", "procedure": "Twenty adult female beagle dogs underwent Eck fistula (Starzl et al, Lancet, 1976, 1:821-25). After performing a large side to side portacaval shunt, the left and right portal vein branches were ligated. A small infusion catheter was tied into the left branch and led through the abdominal wall and subcutaneously to a battery charged infusion pump that was incorporated into a non-restraining body cast. A constant infusion was started of the control or test fluids at the volume of 20 to 30 ml/day. Oral fluids and diet were allowed ad lib. Four days later, the animals were administered 0.2 mCi/kg (CH3 -^3 H)-thymidine with specific activity of 80-90 Ci/MMol (New England Nuclear, Boston). Two hours later, the dogs were anesthetized and killed.\nFor studies of the organelles, small cubes of each hepatic sample were taken for electron microscopy. The tissue was post-fixed in glutaraldehyde followed by osmic acid. After embedding in Polarbed. 812 resin, ultrathin sections were cut, stained with lead citrate and examined in a Philip's 300 electron microscope. Measurements of the organelles were made on electron micrographs by Loud's method (Loud, J Cell Biol, 1968, 37:27-46).\nResults are expressed as mean±standard deviation (SD). The Student's t-test was employed in individual experimental groups to compare differences between right and left lobes or between groups. A p value less than 0.05 was considered to be significant."}, "[2]": {"conditions": "group 2: FK 506 1 mg/kg IM, no operation"}, "[3]": {"conditions": "group 10: FK 506 1 mg/kg IM, 70% hepatectomy, p < 0.01 vs group 8"}},
  "data": [
    {"smiles": "C=CCC1C=C(C)CC(C)CC(OC)C2OC(O)(C(=O)C(=O)N3CCCCC3C(=O)OC(C(C)=CC3CCC(O)C(OC)C3)C(C)C(O)CC1=O)C(C)CC2OC", "note": "(centres unmarked) [FK 506]", "values": [
      {"measurement": "direct effect on hepatocytes in culture", "setting": "hepatocytes in culture", "result": "no direct effect"},
      {"measurement": "regeneration after hepatectomy compared with controls", "setting": "[1]; 4 days pretreatment, intramuscular FK 506 or oral cyclosporin", "result": "significantly augmented compared with controls"},
      {"measurement": "hepatocyte mitosis and DNA synthesis in sham operation group", "setting": "[1]; FK 506 added to sham operation", "result": "further and significantly increased"},
      {"measurement": "3H-thymidine incorporation", "setting": "[1]; [2]", "result": "3.2 × 10^3 cpm/mg DNA"},
      {"measurement": "Proportion of hepatocytes in mitosis", "setting": "[1]; [2]", "result": 1.7, "unit": "%"},
      {"measurement": "3H-thymidine incorporation", "setting": "[1]; group 4: FK 506 1 mg/kg IM, sham operation, p < 0.005 vs groups 1, 2 and 3", "result": "10.5 × 10^3 cpm/mg DNA"},
      {"measurement": "Proportion of hepatocytes in mitosis", "setting": "[1]; group 4: FK 506 1 mg/kg IM, sham operation, p < 0.05 vs groups 1 and 2", "result": 9.5, "unit": "%"},
      {"measurement": "3H-thymidine incorporation", "setting": "[1]; group 6: FK 506 1 mg/kg IM, 40% hepatectomy, p < 0.001 vs group 5", "result": "32.4 × 10^3 cpm/mg DNA"},
      {"measurement": "3H-thymidine incorporation", "setting": "[1]; [3]", "result": "242.0 × 10^3 cpm/mg DNA"},
      {"measurement": "Proportion of hepatocytes in mitosis", "setting": "[1]; [3]", "result": 59.0, "unit": "%"},
      {"measurement": "regeneration effect, FK 506 compared with cyclosporin", "setting": "[1]; group 10 compared with group 9, 70% hepatectomy", "result": "greater with FK 506 than with cyclosporin"},
      {"measurement": "resting hepatocyte mitosis or DNA synthesis", "setting": "[1]; unoperated rats", "result": "did not increase"},
      {"measurement": "Organelle volume in average midzonal hepatocytes, Lipids, Left", "setting": "midzonal hepatocytes; 0.01 mg/kg/day, left vs right p 0.0012", "result": "23.3 +/- 8.8 uM^3"},
      {"measurement": "Organelle volume in average midzonal hepatocytes, Lysosomes, Left", "setting": "midzonal hepatocytes; 0.01 mg/kg/day, left vs right p 0.0017", "result": "62.3 +/- 15.1 uM^3"},
      {"measurement": "Organelle volume in average midzonal hepatocytes, Microbodies, Left", "setting": "midzonal hepatocytes; 0.01 mg/kg/day, left vs right p 0.0080", "result": "99.2 +/- 11.8 uM^3"},
      {"measurement": "Organelle volume in average midzonal hepatocytes, Mitochondria, Left", "setting": "midzonal hepatocytes; 0.01 mg/kg/day, left vs right p 0.1903", "result": "1233.7 +/- 222.4 uM^3"},
      {"measurement": "Area of rough endoplasmic reticulum per average midzonal hepatocyte, Left", "setting": "midzonal hepatocytes; 0.01 mg/kg/day, p vs vehicle 0.0000", "result": "26332 +/- 1483 uM^2"},
      {"measurement": "Area of smooth endoplasmic reticulum per average midzonal hepatocyte, Left", "setting": "midzonal hepatocytes; 0.01 mg/kg/day, p vs vehicle 0.0661, left vs right 0.0000", "result": "18433 +/- 535 uM^2"},
      {"measurement": "Organelle volume in average midzonal hepatocytes, Lipids, Right", "setting": "midzonal hepatocytes; 0.01 mg/kg/day", "result": "81.0 +/- 15.1 uM^3"},
      {"measurement": "Organelle volume in average midzonal hepatocytes, Lysosomes, Right", "setting": "midzonal hepatocytes; 0.01 mg/kg/day", "result": "162.6 +/- 48.9 uM^3"},
      {"measurement": "Organelle volume in average midzonal hepatocytes, Microbodies, Right", "setting": "midzonal hepatocytes; 0.01 mg/kg/day", "result": "173.8 +/- 39.6 uM^3"},
      {"measurement": "Organelle volume in average midzonal hepatocytes, Mitochondria, Right", "setting": "midzonal hepatocytes; 0.01 mg/kg/day", "result": "1429.5 +/- 331.2 uM^3"},
      {"measurement": "Area of rough endoplasmic reticulum per average midzonal hepatocyte, Right", "setting": "midzonal hepatocytes; 0.01 mg/kg/day, p vs vehicle 0.0019", "result": "18697 +/- 1010 uM^2"},
      {"measurement": "Area of smooth endoplasmic reticulum per average midzonal hepatocyte, Right", "setting": "midzonal hepatocytes; 0.01 mg/kg/day, p vs vehicle 0.1092", "result": "23337 +/- 902 uM^2"},
      {"measurement": "Organelle volume in average midzonal hepatocytes, Lysosomes, Left", "setting": "midzonal hepatocytes; 0.1 mg/kg/day, left vs right p 0.0000", "result": "59.6 +/- 15.6 uM^3"},
      {"measurement": "Organelle volume in average midzonal hepatocytes, Lipids, Left", "setting": "midzonal hepatocytes; 0.1 mg/kg/day, left vs right p 0.0011", "result": "22.8 +/- 6.7 uM^3"},
      {"measurement": "Organelle volume in average midzonal hepatocytes, Microbodies, Left", "setting": "midzonal hepatocytes; 0.1 mg/kg/day, left vs right p 0.0025", "result": "86.3 +/- 11.5 uM^3"},
      {"measurement": "Organelle volume in average midzonal hepatocytes, Mitochondria, Left", "setting": "midzonal hepatocytes; 0.1 mg/kg/day, left vs right p 0.2529", "result": "1288.5 +/- 236.2 uM^3"},
      {"measurement": "Area of rough endoplasmic reticulum per average midzonal hepatocyte, Left", "setting": "midzonal hepatocytes; 0.1 mg/kg/day, p vs vehicle 0.0001", "result": "29889 +/- 1117 uM^2"},
      {"measurement": "Area of smooth endoplasmic reticulum per average midzonal hepatocyte, Left", "setting": "midzonal hepatocytes; 0.1 mg/kg/day, p vs vehicle 0.0703, left vs right 0.0018", "result": "18688 +/- 498 uM^2"},
      {"measurement": "Organelle volume in average midzonal hepatocytes, Lipids, Right", "setting": "midzonal hepatocytes; 0.1 mg/kg/day", "result": "83.8 +/- 19.7 uM^3"},
      {"measurement": "Organelle volume in average midzonal hepatocytes, Lysosomes, Right", "setting": "midzonal hepatocytes; 0.1 mg/kg/day", "result": "187.6 +/- 14.8 uM^3"},
      {"measurement": "Organelle volume in average midzonal hepatocytes, Microbodies, Right", "setting": "midzonal hepatocytes; 0.1 mg/kg/day", "result": "172.5 +/- 34.2 uM^3"},
      {"measurement": "Organelle volume in average midzonal hepatocytes, Mitochondria, Right", "setting": "midzonal hepatocytes; 0.1 mg/kg/day", "result": "1439.3 +/- 115.4 uM^3"},
      {"measurement": "Area of rough endoplasmic reticulum per average midzonal hepatocyte, Right", "setting": "midzonal hepatocytes; 0.1 mg/kg/day, p vs vehicle 0.0007", "result": "20325 +/- 975 uM^2"},
      {"measurement": "Area of smooth endoplasmic reticulum per average midzonal hepatocyte, Right", "setting": "midzonal hepatocytes; 0.1 mg/kg/day, p vs vehicle 0.0725", "result": "22747 +/- 1305 uM^2"},
      {"measurement": "preservation of the RER in the right lobes", "setting": "midzonal hepatocytes; 1 mg/kg/day, compared to vehicle controls", "result": "better preservation of the RER"},
      {"measurement": "lipid accumulation in right lobes", "setting": "midzonal hepatocytes; 1 mg/kg/day, compared to vehicle controls, p<0.001", "result": "reduced lipid accumulation"}
    ]}
  ]
}
